One data set has as its system endosomal acidification. As to the kind of experiment: Acridine orange staining of endosomal acidification in DENV-infected BHK-21 cells. The class given is cell-based, hamster. The following applies: BHK-21 cells pretreated 1 h, DENV infection 2 h. As for the experimental part: Hoechst was used to label nuclear DNA. Scale bar: 100 μm.
Cells were washed with HBSS (Thermo Fisher Scientific) once and then stained with acridine orange agent (Sigma-Aldrich) and Hoechst 33258 (Thermo Fisher Scientific) in an incubator at 37° C. in 5% CO2. After 45 minutes, the cells were washed with HBSS once and rinsed with HBSS. Subsequently, cells were visualized with a fluorescence microscope (EVOS). Hoechst 33258 was used for nuclear staining.
The endosomal acidification step is critical for DENV uncoating to release the viral genome for further replication in the cytoplasm (Solomon et al., J Infect, 42, 2001, 104-115). Therefore, the pH-sensitive dye acridine orange (AO) was used to explore whether propofol affects the early stages of DENV infection accordingly (Kao et al., PLoS Negl Trop Dis, 12, 2018, e0006715).

In another data set the test system is viral dsRNA. As to the kind of experiment: dsRNA immunostaining in DENV2-infected BHK-21 cells. Conditions: BHK-21 cells pretreated 1 h, DENV2 infection 6 h. It is filed as cell-based, Dengue virus serotype 2. As for the experimental part:
DAPI was used to label nuclear DNA. […] Scale bar: 100 μm.
Cells were washed with ice-cold PBS 3 times and fixed with 4% paraformaldehyde (Sigma-Aldrich) at room temperature for 15 minutes. Then, the cells were washed 3 times with ice-cold PBS and permeabilized with permeabilization buffer (PBS containing 1% Triton X-100) at room temperature for 5 minutes. The cells were then washed 3 times with ice-cold PBS and immunoblocked with blocking buffer (PBS containing 1% BSA and 0.01% Triton X-100) at 4° C. for 30 minutes. Next, the cells were washed 3 times with ice-cold PBS and immunohybridized with mouse anti-dsRNA J2 primary antibody at 4° C. overnight. Subsequently, the cells were washed 3 times with ice-cold PBS and stained with Alexa Fluor 488-conjugated goat anti-mouse antibody (Thermo Fisher Scientific) at room temperature for 15 minutes. The cells were washed 3 times with ice-cold PBS and then visualized with fluorescence or confocal microscopy. DAPI (Sigma-Aldrich) was used for nuclear staining.
Following endocytosis, the viral genome is released into the cytoplasm and undergoes genome replication (Solomon et al., J Infect, 42, 2001, 104-115).

Data set [1] deals with luciferase-expressing DENV replicon. Conditions: BHK-21-SGR replicon cells treated with or without propofol. (In general: Replicon systems follow genome replication, usually without infectious particles.)
Experimental: Baby hamster kidney (BHK)-21 fibroblasts (ATCC, CCL10) were maintained in Dulbecco's modified Eagle's medium (DMEM; Thermo Fisher Scientific) containing 10% heat-inactivated fetal bovine serum (FBS, Biological Industries) and 1% penicillin-streptomycin (Thermo Fisher Scientific) at 37° C. in 5% CO2. BHK-21 cells harboring a luciferase-expressing DENV replicon (BHK-D2-Fluc-SGR-Neo-1) were maintained in DMEM with 10% heat-inactivated FBS, 1% penicillin-streptomycin, and 0.4 mg/ml G418 agent (Cat# A1720, Sigma-Aldrich) at 37° C. in 5% CO2.
BHK-D2-Fluc-SGR-Neo-1 cells (replicons) were seeded in 96-well plates at 3,000 cells/well overnight.
To assess propofol's inhibitory activity on DENV infection, we next used BHK-21-SGR cells, a cellular replicon-based reporter assay, to examine propofol's translational targets.
Data set [2] relates to TNF-α. The following applies: cecal ligation and puncture-administrated rat liver; cited from earlier work.
For data set [3], the system named is TNF-α. The following applies: CoCl2-treated hypoxic BV2 microglia; cited from earlier work.
For the next data set, the system named is phospho-STAT1 and STAT1. The following applies: RAW 264.7 cells, propofol 10 or 25 μg/ml, DENV2 MOI=10, 24 h.
Data set [4] concerns TNF-α. The following applies: RAW 264.7 cells, propofol 10 or 25 μg/ml, DENV2 MOI=10, 24 h.
Experimental: (§1) RAW 264.7 cells were pretreated without or with propofol (10 or 25 μg/ml) followed by infection with DENV2 (MOI=10) for 24 h. […] Quantitative data are presented as the mean±SD of the experiments (n=3). *p<0.05; ***p<0.001.
According to the manufacturer's instruction, samples were harvested, and the concentration of mouse TNFα was determined using ELISA kit (Cat#88-7324-88, eBioscience).
(§2) In this study, RAW 264.7 cells were pretreated with or without propofol (10 or 25 μg/ml) followed by infection with DENV for 24 h.
For the next data set, the system named is BHK-21 cells. The following applies: propofol 1 to 50 μg/ml, 24 h.
In a further data set the test system is DENV2. Conditions: BHK-21 cells pretreated 1 h, DENV2 MOI=1, 24 h; doses of 5, 10, 25 and 50 μg/ml.
The subject of another data set is DENV NS1. The following applies: BHK-21 cells pretreated 1 h, DENV2 MOI=1, 24 h post-infection.

Where two headings read alike, the source gives them in different places.

Experimental for DENV NS1: (§3) Cells were collected and extracted with lysis buffer containing a protease inhibitor cocktail (Sigma-Aldrich). The processed proteins were separated by 10% SDS polyacrylamide gel electrophoresis followed by transfer to a polyvinylidene difluoride (PVDF) membrane (Millipore). Then, the PVDF membrane was blocked with 5% nonfat milk in 0.05% Tween-20-containing Tris-buffer-based saline (TBS-T) at room temperature for 1 h. Next, the membrane was washed three times with TBS-T buffer and immunohybridized with the indicated primary antibodies at 4° C. overnight. Then, the membrane was washed with TBS-T buffer three times, followed by incubation with the indicated HRP-conjugated secondary antibodies at room temperature for 1 h. The antibody-protein complexes on the PVDF membrane were detected using an ECL Western blot detection kit (PerkinElmer). The signals of the identified proteins were captured with a film exposure system.
Experimental for phospho-STAT1 and STAT1: as §1, §3, §2

As for `CO/C1=C\C(C)=C\[C@@H](C)[C@@H](O)[C@@H](C)C/C(C)=C/C=C/[C@H](OC)[C@@H]([C@@H](C)[C@@H](O)[C@H](C)[C@@]2(O)C[C@@H](O)[C@H](C)[C@@H](C(C)C)O2)OC1=O` [Baf A1, bafilomycin A1], the “endosomal acidification (acridine orange staining)” value in the data set on endosomal acidification was “endosome acidification was blocked”. For the same compound, the “viral dsRNA expression (immunostaining, MFI)” value in the data set with viral dsRNA was “reduced dsRNA expression”.
In the case of `CC(C)c1cccc(C(C)C)c1O` [propofol, 2,6-diisopropylphenol], the “luciferase activity of replicons (viral protein translation)” value in [1] is reported as “no remarkable difference”. Also, the “gene and cytokine productions of TNF-α” value is “reduces both the gene and cytokine productions of TNF-α” in the data set with TNF-α [2]; “reduces both the gene and cytokine productions of TNF-α” in the data set on TNF-α [3]. For the same compound, the “protein expressions of phospho-STAT1 and STAT1 (western blot)” value in the data set on phospho-STAT1 and STAT1 is “inhibited by propofol treatment”. Besides, in the data set on TNF-α [4], the “mouse TNF-α production (ELISA)” value was “reduced the cytokine levels in a dose-dependent manner”. Further, in the data set on BHK-21 cells, the “cytotoxicity (LDH assay)” value is reported as “did not cause cytotoxicity”. Further, the “DENV virion release (viral titer, plaque assay)” value with DENV2 was “significantly (p<0.001) reduced DENV virion release”. Also, the “endosomal acidification (acridine orange staining)” value with endosomal acidification is recorded as “does not affect endosomal acidification”. The “viral NS1 protein expression (western blot)” value in the data set with DENV NS1 is “decreased in a dose-dependent manner”. In the data set on viral dsRNA, the “viral dsRNA expression (immunostaining, MFI)” value was “does not affect blocking DENV viral dsRNA replication”.

(Values after patent US12502361B2, “Method for treating dengue virus infection” (priority 2021, dated 2025).)
